Assay results from US20120214824A1, “PROTEOSTASIS REGULATORS” (priority 2010, published 2012).

Key:
[1] = system: HspA5; experiment: Multigene assay (QuantiGene Plex 2.0), mouse MEF cell line; assay type: cell-based; conditions: 6 hours post-compound treatment
Experimental: (§1) This assay used the QuantiGene Plex 2.0 Reagent System from Affymetrix. This assay combines the use of bDNA (branch DNA) and xMAP magnetic capture beads from Luminex Technologies to quantitatively and simultaneously detect multiple mRNA transcripts per well. The overall procedure was performed according to the QuantiGene Plex 2.0 Reagent System instruction manual from Affymetrix.
(§2) Cells were seeded at a density of 12,000 cells/well in 96-well plates with an overnight incubation at 37° C., 5% CO2. Cells were treated with serially diluted compounds in a 7-point dose dependent manner. Cell lysis with 50% [v/v] Panomics Lysis Mixture (Lysis Mixture+10 μl/ml 25 Proteinase K) was performed 6 hours post-compound treatment. Lysed cells were heated at 50° C. to ensure appropriate lysing and the plates were then frozen at −80° C. Cell lysates, thawed at room temperature on the day of the assay, were pooled with mouse 8-gene multiplex probe sets and with 8 different sets of magnetic capture beads (Luminex Technology, Austin, Tex.) in a 100 μl/well volume. Biomek FX was used at every liquid transfer step. The eight plates containing lysate-probe-bead mixtures were incubated at 54° C.±1° C. on a shaking platform for an overnight incubation in the dark (18-20 hours). The following day the hybridization plates were compressed by transferring the hybridized lysates into a single magnetic capture plate. The plate was kept on a magnet to hold the beads and then washed with Panomics Wash Buffer 2.0 on a BioTek ELx405 select plate washer to remove any unbound sample. This step was followed by serial hybridizations and washings of the bDNA pre-amplifier (1 hour, 50° C.), bDNA amplifier (1 hour, 50° C.), label probe (1 hour, 50° C.), and streptavidin-phycoerythrin (SAPE, 30 minutes, room temperature). (Zhang, A. et al. Small interfering RNA and gene expression analysis using a multiplex branched DNA assay without RNA purification. J Biomol Screen 10, 549-56 (2005)). The plate was then washed with SAPE wash buffer to remove unbound SAPE and each well was analyzed with the Luminex FlexMap3D (Luminex, Austin, Tex.). SAPE fluorescence measured from each bead was proportional to the number of mRNA transcripts captured by the beads (Zheng, Z., Luo, Y. & McMaster, G. K. Sensitive and quantitative measurement of gene expression directly from a small amount of whole blood. Clin Chem 52, 1294-302 (2006)). Fold changes in gene expression were obtained for each gene per well by normalizing the raw data first to the DMSO control and then to a housekeeping gene (TBP-TATA binding protein or Tub1-alpha-tubulin).

[2] = system: TUB1; experiment: as above; assay type: cell-based; conditions: 6 hours post-compound treatment
Experimental: as §1, §2

[3] = system: HSPA1a; experiment: as above; assay type: cell-based; conditions: 6 hours post-compound treatment
Experimental: as §1, §2

[4] = system: BCL2; experiment: as above; assay type: cell-based; conditions: 6 hours post-compound treatment
Experimental: as §1, §2

[5] = system: GCLM; experiment: as above; assay type: cell-based; conditions: 6 hours post-compound treatment
Experimental: as §1, §2

[6] = system: DDIT3; experiment: as above; assay type: cell-based; conditions: 6 hours post-compound treatment
Experimental: as §1, §2

[7] = system: HMOX; experiment: as above; assay type: cell-based; conditions: 6 hours post-compound treatment
Experimental: as §1, §2

[8] = system: firefly luciferase; experiment: Luciferase folding assay (Lucif.); assay type: cell-based, human; conditions: HeLa-luciferase cells; for Lucif. (luciferase activity induction): Table 1a
Text: Firefly luciferase is a commonly used bioluminescent reporter. This monomeric enzyme of 61 kDa catalyzes a two-step oxidation reaction to yield light, usually in the green to yellow region, typically 550-570 nm. The first step of this reaction is activation of the luciferyl carboxylate by ATP to yield a reactive mixed anhydride. In the second step, the activated intermediate reacts with oxygen to create a transient dioxetane that breaks down to the oxidized products, oxyluciferin and CO2. Upon mixing with substrates, firefly luciferase produces an initial burst of light that decays over about 15 seconds to a low level of sustained luminescence. This kinetic profile reflects the slow release of the enzymatic product, thus limiting catalytic turnover after the initial reaction.
This mammalian cell based assay that used firefly luciferase as a sensor was used to screen for compounds that may modulate the cellular folding environment.
HeLa luciferase cell lines: Frozen bullets containing the cells were thawed briefly at 37° C. then placed into a T-150 flask containing 30-35 ml DMEM medium+Penicillin/Strep (1% final+10% FBS (final)+Geneticin @ 200-500 ug/ml. Cell cultures were maintained at 37° C. with 5% CO2 and water in the bottom of the incubator to keep cells healthy. Upon expanding cell line, luciferase measurements were taken to make sure that activity levels were between 2000-5000 (RLU) when plated at 15K/well in a 96-well format (Bright-Glo Promega) before compound treatment.
Compound treatment of HeLa-luciferase cells: HeLa-luciferase WT cells were plated in a 96-well format at 15K/well the day prior to performing compound treatment and/or luciferase assay. […] Final volume used per well was 90 uL. Flat bottom, white polystyrene plates were used for plating the cells.
For compound treatment, stocks of compounds were made up at 10 mM concentration in DMSO. Stocks compounds were diluted by 100× fold in the same media used for culturing the cells—this leads to a 0.1 mM (or 100 uM) concentration. After diluting the compound in media, 10 uL of the 100 uM solution was placed into each well of cells (90 uL); making the final concentration of the compound 10 uM. If serial dilutions of compounds were tested, serial dilutions of compounds were first made in DMSO accordingly, and further diluted in the media, prior to adding to cells. This procedure allowed for constant final levels of DMSO concentrations, regardless of initial compound concentration.
Performing luciferase activity assay: Bright-Glo Luciferase Assay Reagent (Promega cat #: E2610, E2620, E2650) was thawed out at RT in a water bath. Alternatively, Bright-Glo Luciferase assay buffer (prior to mixing with substrate) was stored overnight at RT, prior to using.
Following compound treatment, plates were removed from 37° C. and allowed to acclimate to RT for 5-10 min. Bright-Glo reagent was added to each cell-containing well in a 1:1 ratio (e.g., 100 uL of Bright Glo for each 100 uL cells).
Plates were placed on a plate shaker for 5 min, removing any air bubbles on the surface (which may interfere with proper reads), and then read on an EnVision 2104 Multilabel reader, Emission filter Luminescence 700, barcode 212, WL 400-700 nm.
Data for representative compounds in this assay are shown under the heading “Lucif.”

Row | SMILES | HspA5 gene induction ([1]; Table 2b) | TUB1 gene induction ([2]; Table 2a) | HSPA1a gene induction ([3]; Table 2b) | BCL2 gene induction ([4]; Table 2b) | GCLM gene induction ([5]; Table 2a) | DDIT3 gene induction ([6]; Table 2a) | HMOX gene induction ([7]; Table 2b) | Lucif (luciferase activity induction) ([8]; Table 2a) | Lucif. (luciferase activity induction) [8] | further results
1 | CCCc1n[nH]c2c1C(c1ccccc1C(F)(F)F)C(C#N)=C(N)O2 (stereo not shown) [drawing 28/(CH2)2Me/2-CF3 #1] | – | – | – | – | – | – | – | – | – | HspA5 gene induction ([1]; Table 3b): − (− Indicates less than 2 fold induction); TUB1 gene induction ([2]; Table 3a): − (− Indicates less than 2 fold induction); HSPA1a gene induction ([3]; Table 3b): − (− Indicates less than 2 fold induction); BCL2 gene induction ([4]; Table 3b): − (− Indicates less than 2 fold induction); GCLM gene induction ([5]; Table 3a): + (+ indicates a induction of greater than 2 fold); DDIT3 gene induction ([6]; Table 3a): − (− Indicates less than 2 fold induction); HMOX gene induction ([7]; Table 3b): + (+ indicates a induction of greater than 2 fold); Lucif (luciferase activity induction) ([8]; Table 3a): + (+ indicates a induction of greater than 2 fold)
2 | CC1=C(C#N)C(c2ccccc2OC(C)C)C2=C(CC(c3ccccc3)CC2=O)N1 (stereo not shown) [drawing 27/Me/CN/o-OCHMe2/H] | − (− Indicates less than 2 fold induction) | − (− Indicates less than 2 fold induction) | − (− Indicates less than 2 fold induction) | − (− Indicates less than 2 fold induction) | − (− Indicates less than 2 fold induction) | − (− Indicates less than 2 fold induction) | − (− Indicates less than 2 fold induction) | + (+ indicates a induction of greater than 2 fold) | – | –
3 | CC1=C(C(=O)OCC(C)C)C(c2ccc(F)cc2)C2=C(CC(c3ccccc3)CC2=O)N1 (stereo not shown) [drawing 27/Me/COOCH2CHMe2/p-F/H] | − (− Indicates less than 2 fold induction) | − (− Indicates less than 2 fold induction) | − (− Indicates less than 2 fold induction) | − (− Indicates less than 2 fold induction) | − (− Indicates less than 2 fold induction) | − (− Indicates less than 2 fold induction) | − (− Indicates less than 2 fold induction) | + (+ indicates a induction of greater than 2 fold) | – | –
4 | CC1=C(C(=O)OCC(C)C)C(c2ccc(F)cc2)C2=C(CC(c3cccs3)CC2=O)N1 (stereo not shown) [drawing 26/Me/COOCH2CHMe2/p-F #1] | – | – | – | – | – | – | – | – | + (+ indicates a induction of greater than 2 fold) | –
5 | CC1=C(C#N)C(c2ccc(F)cc2)C2=C(CC(c3cccs3)CC2=O)N1 (stereo not shown) [drawing 26/Me/CN/p-F] | – | – | – | – | – | – | – | – | + (+ indicates a induction of greater than 2 fold) | HspA5 gene induction ([1]; Table 1b): − (− Indicates less than 2 fold induction); TUB1 gene induction ([2]; Table 1a): − (− Indicates less than 2 fold induction); HSPA1a gene induction ([3]; Table 1b): − (− Indicates less than 2 fold induction); BCL2 gene induction ([4]; Table 1b): − (− Indicates less than 2 fold induction); GCLM gene induction ([5]; Table 1a): − (− Indicates less than 2 fold induction); DDIT3 gene induction ([6]; Table 1a): − (− Indicates less than 2 fold induction); HMOX gene induction ([7]; Table 1b): − (− Indicates less than 2 fold induction)
6 | CC1=C(C#N)C(c2ccc(F)cc2)C2=C(CC(c3ccccc3)CC2=O)N1 (stereo not shown) [drawing 27/Me/CN/p-F/H] | − (− Indicates less than 2 fold induction) | − (− Indicates less than 2 fold induction) | − (− Indicates less than 2 fold induction) | − (− Indicates less than 2 fold induction) | − (− Indicates less than 2 fold induction) | + (+ indicates a induction of greater than 2 fold) | + (+ indicates a induction of greater than 2 fold) | + (+ indicates a induction of greater than 2 fold) | – | –
7 | CC1=C(C(=O)OCC(C)C)C(c2ccc(F)cc2)C2=C(CC(c3cccs3)CC2=O)N1 (stereo not shown) [drawing 26/Me/COOCH2CHMe2/p-F #2] | – | – | – | – | – | – | – | – | + (+ indicates a induction of greater than 2 fold) | HspA5 gene induction ([1]; Table 1b): − (− Indicates less than 2 fold induction); TUB1 gene induction ([2]; Table 1a): − (− Indicates less than 2 fold induction); HSPA1a gene induction ([3]; Table 1b): − (− Indicates less than 2 fold induction); BCL2 gene induction ([4]; Table 1b): − (− Indicates less than 2 fold induction); GCLM gene induction ([5]; Table 1a): − (− Indicates less than 2 fold induction); DDIT3 gene induction ([6]; Table 1a): + (+ indicates a induction of greater than 2 fold); HMOX gene induction ([7]; Table 1b): − (− Indicates less than 2 fold induction)
8 | N#CC1=C(N)NC2=C(C(=O)CC(c3ccccc3)C2)C1c1ccc(F)cc1 (stereo not shown) [drawing 27/NH2/CN/p-F/H] | − (− Indicates less than 2 fold induction) | − (− Indicates less than 2 fold induction) | + (+ indicates a induction of greater than 2 fold) | − (− Indicates less than 2 fold induction) | − (− Indicates less than 2 fold induction) | + (+ indicates a induction of greater than 2 fold) | − (− Indicates less than 2 fold induction) | + (+ indicates a induction of greater than 2 fold) | – | –
9 | COC(=O)C1=C(C)Nc2c(c(=O)n(C)c(=O)n2C)C1c1ccc(F)cc1 (stereo not shown) [A] | – | – | – | – | – | – | – | – | – | HspA5 gene induction ([1]; Table 6): — (— Indicates less than 2 fold induction); TUB1 gene induction ([2]; Table 6): — (— Indicates less than 2 fold induction); HSPA1a gene induction ([3]; Table 6): — (— Indicates less than 2 fold induction); BCL2 gene induction ([4]; Table 6): + (+ indicates a induction of greater than 2 fold); GCLM gene induction ([5]; Table 6): — (— Indicates less than 2 fold induction); DDIT3 gene induction ([6]; Table 6): + (+ indicates a induction of greater than 2 fold); HMOX gene induction ([7]; Table 6): — (— Indicates less than 2 fold induction)
